What follows are compounds tested against T1, GCS (Canis lupus familiaris, UniProt A0A8I3MXG6) (assay: GCS enzymatic assay (MDCK cell lysate, NBD-ceramide to glucosylceramide, LC/MS)). Details: Table 2; class symbols A, B, C; the table does not say which of the assays; read-out: Data Range (IC50 values).
T1 construct: endogenous in cells; host or cells: MDCK (Madin-Darby canine kidney) cells, whole-cell lysate
T1 sequence (A0A8I3MXG6 1-394): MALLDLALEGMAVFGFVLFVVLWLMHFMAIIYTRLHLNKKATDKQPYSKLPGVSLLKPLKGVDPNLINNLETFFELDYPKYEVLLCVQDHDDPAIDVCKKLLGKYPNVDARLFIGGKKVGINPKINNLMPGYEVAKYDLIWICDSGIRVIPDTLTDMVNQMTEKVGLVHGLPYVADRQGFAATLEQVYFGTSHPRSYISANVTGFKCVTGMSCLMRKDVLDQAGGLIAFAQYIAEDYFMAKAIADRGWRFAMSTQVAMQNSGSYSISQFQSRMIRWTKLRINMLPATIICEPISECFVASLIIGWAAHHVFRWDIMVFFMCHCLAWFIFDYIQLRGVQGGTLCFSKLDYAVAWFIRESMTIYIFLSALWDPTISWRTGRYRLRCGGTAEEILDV
Format: biochemical, canine
Procedure, shortened: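 Dog MDCK cell lysate served as enzyme source, with NBD-ceramide turned over to glucosylceramide and 0.1% DMSO as mock control. The reaction was stopped with acetonitrile. Both lipids were quantified by LC/MS/MS in ESI positive MRM mode against a tolbutamide internal standard, giving IC50 or percent inhibition.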

**Q.** With `Cc1ccc(N2CC[C@@H](C(=O)N[C@H](CN3CCCC3)[C@H](O)c3ccc(OC4CC4)c(Cl)c3)C2)cc1` [Compound 153, (R)-N-((1R,2R)-1-(3-chloro-4-cyclopropoxyphenyl)-1-hydroxy-3-(pyrrolidin-1-yl)propan-2-yl)-1-(p-tolyl)pyrrolidine-3-carboxamide] as the compound, how does the IC50 read?
**A.** Its IC50 is 1 to 30 nM.

**Q.** With `O=C(N[C@H](CN1CCCC1)[C@H](O)c1cc(F)c2c(c1)OCCO2)[C@@H]1CCN(c2cccc(Oc3ccc(F)cc3)n2)C1` [Compound 116, (R)-N-((1R,2R)-1-(8-fluoro-2,3-dihydrobenzo[b][1,4]dioxin-6-yl)-1-hydroxy-3-(pyrrolidin-1-yl)propan-2-yl)-1-(6-(4-fluorophenoxy)pyridin-2-yl)pyrrolidine-3-carboxamide] as the compound, how does the IC50 read?
**A.** Its IC50 is 1 to 30 nM.

**Q.** Which IC50 does the source give for `O=C(N[C@H](CN1CCCC1)[C@H](O)c1ccc2c(c1)OCCO2)C1CCN(c2ccc3c(c2)CCCC3)C1` (stereo partly drawn) [Compound 80G, N-((1R,2R)-1-(2,3-dihydrobenzo[b][1,4]dioxin-6-yl)-1-hydroxy-3-(pyrrolidin-1-yl)propan-2-yl)-1-(5,6,7,8-tetrahydronaphthalen-2-yl)pyrrolidine-3-carboxamide] here?
**A.** Its IC50 is 1 to 30 nM.

**Q.** With `CC(C)(C)Oc1ccc([C@@H](O)[C@@H](CN2CCCC2)NC(=O)[C@@H]2CCN(c3ccc(Cl)cc3)C2)cc1Cl` [Compound 135, (R)-N-((1R,2R)-1-(4-(tert-butoxy)-3-chlorophenyl)-1-hydroxy-3-(pyrrolidin-1-yl)propan-2-yl)-1-(4-chlorophenyl)pyrrolidine-3-carboxamide] as the compound, how does the IC50 read?
**A.** The IC50 was 1 to 30 nM.

**Q.** With `CC(C)Oc1ccc([C@@H](O)[C@@H](CN2CCCC2)NC(=O)[C@@H]2CCN(c3ccc(Cl)cc3)C2)cc1Cl` [Compound 23, (R)-N-((1R,2R)-1-(3-chloro-4-isopropoxyphenyl)-1-hydroxy-3-(pyrrolidin-1-yl)propan-2-yl)-1-(4-chlorophenyl)pyrrolidine-3-carboxamide] as the compound, how does the IC50 read?
**A.** The IC50 was 1 to 30 nM.

**Q.** For `O=C(N[C@H](CN1CCCC1)[C@H](O)c1ccc(OC2CC2)cc1)[C@@H]1CCN(c2ccc3ccsc3c2)C1` [Compound 157, (R)-1-(benzo[b]thiophen-6-yl)-N-((1R,2R)-1-(4-cyclopropoxyphenyl)-1-hydroxy-3-(pyrrolidin-1-yl)propan-2-yl)pyrrolidine-3-carboxamide], which IC50 is on record?
**A.** The IC50 was 1 to 30 nM.

**Q.** Which IC50 does the source give for `O=C(N[C@H](CN1CCCC1)[C@H](O)c1ccc(OC(F)F)cc1)[C@@H]1CCN(c2ccc(Cl)cc2)C1` [Compound 160, (R)-1-(4-chlorophenyl)-N-((1R,2R)-1-(4-(difluoromethoxy)phenyl)-1-hydroxy-3-(pyrrolidin-1-yl)propan-2-yl)pyrrolidine-3-carboxamide] here?
**A.** The IC50 was 30 to 100 nM.

**Q.** For `O=C(N[C@H](CN1CCCC1)[C@H](O)c1ccc(OC2CC2)c(Cl)c1)[C@@H]1CCN(c2cc(Oc3ccccn3)ccc2Cl)C1` [Compound 118, (R)-N-((1R,2R)-1-(3-chloro-4-cyclopropoxyphenyl)-1-hydroxy-3-(pyrrolidin-1-yl)propan-2-yl)-1-(2-chloro-5-(pyridin-2-yloxy)phenyl)pyrrolidine-3-carboxamide], which IC50 is on record?
**A.** Its IC50 is 1 to 30 nM.

**Q.** With `O=C(N[C@H](CN1CCC1)[C@H](O)c1ccc2c(c1)OCCO2)C1CCN(c2ccc3cc(F)ccc3c2)C1` (stereo partly drawn) [Compound 79A, N-((1R,2R)-3-(azetidin-1-yl)-1-(2,3-dihydrobenzo[b][1,4]dioxin-6-yl)-1-hydroxypropan-2-yl)-1-(6-fluoronaphthalen-2-yl)pyrrolidine-3-carboxamide] as the compound, how does the IC50 read?
**A.** Its IC50 is 1 to 30 nM.

**Q.** Which IC50 does the source give for `O=C(N[C@H](CN1CCCC1)[C@H](O)c1ccc(OC(F)F)cc1)[C@@H]1CCN(c2ccccc2)C1` [Compound 161, (R)-N-((1R,2R)-1-(4-(difluoromethoxy)phenyl)-1-hydroxy-3-(pyrrolidin-1-yl)propan-2-yl)-1-phenylpyrrolidine-3-carboxamide] here?
**A.** The IC50 was 1 to 30 nM.

**Q.** With `CC(C)(O)COc1ccc([C@@H](O)[C@@H](CN2CCCC2)NC(=O)[C@@H]2CCN(c3ccc4cc(F)ccc4c3)C2)cc1Cl` [Compound 102, (R)-N-((1R,2R)-1-(3-chloro-4-(2-hydroxy-2-methylpropoxy)phenyl)-1-hydroxy-3-(pyrrolidin-1-yl)propan-2-yl)-1-(6-fluoronaphthalen-2-yl)pyrrolidine-3-carboxamide] as the compound, how does the IC50 read?
**A.** The IC50 was 1 to 30 nM.

Same assay, conditions: Table 2; class symbols D, E, F, NA (not active); the table does not say which of the assays

**Q.** For `O=C(N[C@H](CN1CCCCC1)[C@H](O)c1ccc2c(c1)OCCO2)C1CCN(c2ccc(Cl)cc2)C1` (stereo partly drawn) [Compound 43D, 1-(4-chlorophenyl)-N-((1R,2R)-1-(2,3-dihydrobenzo[b][1,4]dioxin-6-yl)-1-hydroxy-3-(piperidin-1-yl)propan-2-yl)pyrrolidine-3-carboxamide], which “Data Range (% inhibition)” value is on record?
**A.** The value was “F (1-49% (or less than 50%))”.

**Q.** For `O=C(N[C@H](CN1CCCC1)[C@H](O)c1ccc2c(c1)OCCO2)[C@H]1CCN(c2ccc3ccccc3n2)C1` [Compound 72B, (S)-N-((1R,2R)-1-(2,3-dihydrobenzo[b][1,4]dioxin-6-yl)-1-hydroxy-3-(pyrrolidin-1-yl)propan-2-yl)-1-(quinolin-2-yl)pyrrolidine-3-carboxamide], which “Data Range (% inhibition)” value is on record?
**A.** The value was “F (1-49% (or less than 50%))”.

**Q.** With `O=C(N[C@H](CN1CCCC1)[C@H](O)c1ccc2c(c1)OCCO2)[C@H]1CCN(c2ccnc(OC3CC3)c2)C1` [Compound 56E, (S)-1-(2-cyclopropoxypyridin-4-yl)-N-((1R,2R)-1-(2,3-dihydrobenzo[b][1,4]dioxin-6-yl)-1-hydroxy-3-(pyrrolidin-1-yl)propan-2-yl)pyrrolidine-3-carboxamide] as the compound, how does the “Data Range (% inhibition)” value read?
**A.** Its value is “F (1-49% (or less than 50%))”.

**Q.** Which “Data Range (% inhibition)” value does the source give for `O=C(N[C@H](CN1CCCC1)[C@H](O)c1ccc2c(c1)OCCO2)C1CCN(c2ccc3nccnc3c2)C1` (stereo partly drawn) [Compound 83C, N-((1R,2R)-1-(2,3-dihydrobenzo[b][1,4]dioxin-6-yl)-1-hydroxy-3-(pyrrolidin-1-yl)propan-2-yl)-1-(quinoxalin-6-yl)pyrrolidine-3-carboxamide] here?
**A.** The value was “F (1-49% (or less than 50%))”.

**Q.** `O=C(N[C@H](CN1CCCCC1)[C@H](O)c1ccc(OC2CC2)c(Cl)c1)[C@@H]1CCN(c2ccc(Cl)cc2)C1` [Compound 66, (R)-N-((1R,2R)-1-(3-chloro-4-cyclopropoxyphenyl)-1-hydroxy-3-(piperidin-1-yl)propan-2-yl)-1-(4-chlorophenyl)pyrrolidine-3-carboxamide] was tested. Which “Data Range (% inhibition)” value did it give?
**A.** The value was “F (1-49% (or less than 50%))”.

**Q.** With `O=C(N[C@H](CN1CCCC1)[C@H](O)c1ccc2c(c1)OCCO2)[C@@H]1CCN(C(=O)c2ccccc2)C1` [Compound 121, (R)-1-benzoyl-N-((1R,2R)-1-(2,3-dihydrobenzo[b][1,4]dioxin-6-yl)-1-hydroxy-3-(pyrrolidin-1-yl)propan-2-yl)pyrrolidine-3-carboxamide] as the compound, how does the “Data Range (% inhibition)” value read?
**A.** The value was “NA (not active—a negative value was generated for % inhibition)”.

**Q.** With `CC1(C)CCc2ccc(N3CC[C@H](C(=O)N[C@H](CN4CCCC4)[C@H](O)c4ccc5c(c4)OCCO5)C3)cc2O1` [Compound 71F, (S)-N-((1R,2R)-1-(2,3-dihydrobenzo[b][1,4]dioxin-6-yl)-1-hydroxy-3-(pyrrolidin-1-yl)propan-2-yl)-1-(2,2-dimethylchroman-7-yl)pyrrolidine-3-carboxamide] as the compound, how does the “Data Range (% inhibition)” value read?
**A.** The value was “F (1-49% (or less than 50%))”.

**Q.** With `O=C(N[C@H](CN1CCCC1)[C@H](O)c1ccc2c(c1)OCCO2)C1CCN(c2ccc(Cl)c(Cl)c2)C1` (stereo in doubt) [Compound 8D, (S)-1-(3,4-dichlorophenyl)-N-((1R,2R)-1-(2,3-dihydrobenzo[b][1,4]dioxin-6-yl)-1-hydroxy-3-(pyrrolidin-1-yl)propan-2-yl)pyrrolidine-3-carboxamide] as the compound, how does the “Data Range (% inhibition)” value read?
**A.** The value was “E (50-74% (or less than 75%))”.

**Q.** For `O=C(N[C@H](CN1CCCC1)[C@H](O)c1ccc2c(c1)OCCO2)[C@H]1CCN(C2CCOCC2)C1` [Compound 9E, (S)-N-((1R,2R)-1-(2,3-dihydrobenzo[b][1,4]dioxin-6-yl)-1-hydroxy-3-(pyrrolidin-1-yl)propan-2-yl)-1-(tetrahydro-2H-pyran-4-yl)pyrrolidine-3-carboxamide], which “Data Range (% inhibition)” value is on record?
**A.** The value was “NA (not active—a negative value was generated for % inhibition)”.

**Q.** With `CN1CCc2ccc(N3CC[C@@H](C(=O)N[C@H](CN4CCCC4)[C@H](O)c4ccc5c(c4)OCCO5)C3)cc2C1` [Compound 63, (R)-N-((1R,2R)-1-(2,3-dihydrobenzo[b][1,4]dioxin-6-yl)-1-hydroxy-3-(pyrrolidin-1-yl)propan-2-yl)-1-(2-methyl-1,2,3,4-tetrahydroisoquinolin-7-yl)pyrrolidine-3-carboxamide] as the compound, how does the “Data Range (% inhibition)” value read?
**A.** Its value is “F (1-49% (or less than 50%))”.

**Q.** How did the “Data Range (% inhibition)” value turn out when `O=C(N[C@H](CN1CCCC1)[C@H](O)c1ccc2c(c1)OCCO2)[C@H]1CCN(C2Cc3ccccc3C2)C1` [Compound 55B, (S)-1-(2,3-dihydro-1H-inden-2-yl)-N-((1R,2R)-1-(2,3-dihydrobenzo[b][1,4]dioxin-6-yl)-1-hydroxy-3-(pyrrolidin-1-yl)propan-2-yl)pyrrolidine-3-carboxamide] was run?
**A.** Its value is “F (1-49% (or less than 50%))”.

**Q.** How did the “Data Range (% inhibition)” value turn out when `O=C(N[C@H](CN1CCCC1)[C@H](O)c1ccc2c(c1)OCCO2)[C@@H]1CCN(CC2(O)CCOCC2)C1` [Compound 5, (R)-N-((1R,2R)-1-(2,3-dihydrobenzo[b][1,4]dioxin-6-yl)-1-hydroxy-3-(pyrrolidin-1-yl)propan-2-yl)-1-((4-hydroxytetrahydro-2H-pyran-4-yl)methyl)pyrrolidine-3-carboxamide] was run?
**A.** The value was “F (1-49% (or less than 50%))”.
